Measured values as given in ChEMBL document CHEMBL3885881, “DrugMatrix”.

Species: Rattus norvegicus
Test: DrugMatrix - Regimen: Daily Repeat
Format: toxicity, organism-based, Sprague-Dawley
Set-up: regimen Daily Repeat, gender Male, age 6-8 weeks
Details: in vivo, po, route oral GAVAGE, vehicle 100 % WATER; for ABSOLUTE BASOPHIL / ABSOLUTE EOSINOPHIL / ABSOLUTE LYMPHOCYTE / ABSOLUTE MONOCYTE / ABSOLUTE SEGMENTED NEUTROPHIL / BASOPHIL / EOSINOPHIL / ERYTHROCYTE COUNT / HEMATOCRIT / HEMOGLOBIN / LEUKOCYTE COUNT / LYMPHOCYTE / MEAN CORPUSCULAR HEMOGLOBIN / MEAN CORPUSCULAR HEMOGLOBIN CONCENTRATION / MEAN CORPUSCULAR VOLUME / MONOCYTE / NEUTROPHIL / NUCLEATED RED BLOOD CELLS / PLATELET COUNT: tissue Blood; for ALANINE AMINOTRANSFERASE / ALBUMIN / ALKALINE PHOSPHATASE / ASPARTATE AMINOTRANSFERASE / BLOOD UREA NITROGEN / CARBON DIOXIDE / CHLORIDE / CHOLESTEROL / CREATINE PHOSPHOKINASE / CREATININE / GLUCOSE / LACTATE DEHYDROGENASE / LIPASE / PHOSPHORUS / POTASSIUM / SODIUM / TOTAL BILIRUBIN / TOTAL PROTEIN / URIC ACID: tissue Plasma
[1] = 1 mg/kg, 120 h, dose level Low, time 5 day
[2] = 10 mg/kg, 72 h, dose level High, time 3 day
[3] = 10 mg/kg, 120 h, dose level High, time 5 day

CC[C@H](C)[C@H]1O[C@]2(C=C[C@@H]1C)C[C@@H]1C[C@@H](C/C=C(\C)[C@@H](O[C@H]3C[C@H](OC)[C@@H](O[C@H]4C[C@H](OC)[C@@H](O)[C@H](C)O4)[C@H](C)O3)[C@@H](C)/C=C/C=C3\CO[C@@H]4[C@H](O)C(C)=C[C@@H](C(=O)O1)[C@]34O)O2.CO[C@H]1C[C@H](O[C@H]2[C@H](C)O[C@@H](O[C@@H]3/C(C)=C/C[C@@H]4C[C@@H](C[C@]5(C=C[C@H](C)[C@@H](C(C)C)O5)O4)OC(=O)[C@@H]4C=C(C)[C@@H](O)[C@H]5OC/C(=C\C=C\[C@@H]3C)[C@]54O)C[C@@H]2OC)O[C@@H](C)[C@@H]1O [ABAMECTIN]
ABSOLUTE BASOPHIL [1]: 0 CELLS/uL | ABSOLUTE EOSINOPHIL [1]: 144.67 CELLS/uL | ABSOLUTE LYMPHOCYTE [1]: 15431.33 CELLS/uL | ABSOLUTE MONOCYTE [1]: 370 CELLS/uL | ABSOLUTE SEGMENTED NEUTROPHIL [1]: 1387.33 CELLS/uL | BASOPHIL [1]: 0% | EOSINOPHIL [1]: 0.67% | ERYTHROCYTE COUNT [1]: 5.65 x10E6/uL | HEMATOCRIT [1]: 33.97% | HEMOGLOBIN [1]: 13.77 G/DL | LEUKOCYTE COUNT [1]: 17.33 x10E3/uL | LYMPHOCYTE [1]: 89.67% | MEAN CORPUSCULAR HEMOGLOBIN [1]: 24.4 pg | MEAN CORPUSCULAR HEMOGLOBIN CONCENTRATION [1]: 40.53 G/DL | MEAN CORPUSCULAR VOLUME [1]: 60.13 fL | MONOCYTE [1]: 2% | NEUTROPHIL [1]: 7.67% | NUCLEATED RED BLOOD CELLS [1]: 0 /100WBC | PLATELET COUNT [1]: 1317.33 x10E3/uL | ALANINE AMINOTRANSFERASE [1]: 48.67 u/L | ALBUMIN [1]: 4.2 G/DL | ALKALINE PHOSPHATASE [1]: 323.67 u/L | ASPARTATE AMINOTRANSFERASE [1]: 72 u/L | BLOOD UREA NITROGEN [1]: 14.67 mg/dL | CARBON DIOXIDE [1]: 25 mmol/L | CHLORIDE [1]: 102 MEQ/L | CHOLESTEROL [1]: 70.33 mg/dL | CREATINE PHOSPHOKINASE [1]: 216.33 u/L | CREATININE [1]: 0.13 mg/dL | GLUCOSE [1]: 162.33 mg/dL | LACTATE DEHYDROGENASE [1]: 87.67 u/L | LIPASE [1]: 9 u/L | PHOSPHORUS [1]: 11.33 mg/dL | POTASSIUM [1]: 6.2 MEQ/L | SODIUM [1]: 144.03 MEQ/L | TOTAL BILIRUBIN [1]: 0.17 mg/dL | TOTAL PROTEIN [1]: 5.87 G/DL | URIC ACID [1]: 1.5 mg/dL | ABSOLUTE BASOPHIL [2]: 0 CELLS/uL | ABSOLUTE EOSINOPHIL [2]: 36.33 CELLS/uL | ABSOLUTE LYMPHOCYTE [2]: 12016 CELLS/uL | ABSOLUTE MONOCYTE [2]: 120 CELLS/uL | ABSOLUTE SEGMENTED NEUTROPHIL [2]: 861 CELLS/uL | BASOPHIL [2]: 0% | EOSINOPHIL [2]: 0.33% | ERYTHROCYTE COUNT [2]: 5.75 x10E6/uL | HEMATOCRIT [2]: 35.6% | HEMOGLOBIN [2]: 13.9 G/DL | LEUKOCYTE COUNT [2]: 13.03 x10E3/uL | LYMPHOCYTE [2]: 92.33% | MEAN CORPUSCULAR HEMOGLOBIN [2]: 24.2 pg | MEAN CORPUSCULAR HEMOGLOBIN CONCENTRATION [2]: 39.07 G/DL | MEAN CORPUSCULAR VOLUME [2]: 61.93 fL | MONOCYTE [2]: 1% | NEUTROPHIL [2]: 6.33% | NUCLEATED RED BLOOD CELLS [2]: 0 /100WBC | PLATELET COUNT [2]: 1234 x10E3/uL | ALANINE AMINOTRANSFERASE [2]: 46.33 u/L | ALBUMIN [2]: 4.23 G/DL | ALKALINE PHOSPHATASE [2]: 426 u/L | ASPARTATE AMINOTRANSFERASE [2]: 78.33 u/L | BLOOD UREA NITROGEN [2]: 14.67 mg/dL | CARBON DIOXIDE [2]: 25 mmol/L | CHLORIDE [2]: 99.67 MEQ/L | CHOLESTEROL [2]: 64 mg/dL | CREATINE PHOSPHOKINASE [2]: 208.33 u/L | CREATININE [2]: 0.18 mg/dL | GLUCOSE [2]: 136.33 mg/dL | LACTATE DEHYDROGENASE [2]: 150.33 u/L | LIPASE [2]: 11 u/L | PHOSPHORUS [2]: 11.37 mg/dL | POTASSIUM [2]: 6.65 MEQ/L | SODIUM [2]: 143.17 MEQ/L | TOTAL BILIRUBIN [2]: 0.17 mg/dL | TOTAL PROTEIN [2]: 5.87 G/DL | URIC ACID [2]: 1.33 mg/dL | ABSOLUTE BASOPHIL [3]: 0 CELLS/uL | ABSOLUTE EOSINOPHIL [3]: 0 CELLS/uL | ABSOLUTE LYMPHOCYTE [3]: 9787 CELLS/uL | ABSOLUTE MONOCYTE [3]: 273.67 CELLS/uL | ABSOLUTE SEGMENTED NEUTROPHIL [3]: 1239.33 CELLS/uL | BASOPHIL [3]: 0% | EOSINOPHIL [3]: 0% | ERYTHROCYTE COUNT [3]: 6.35 x10E6/uL | HEMATOCRIT [3]: 39.13% | HEMOGLOBIN [3]: 15.47 G/DL | LEUKOCYTE COUNT [3]: 11.3 x10E3/uL | LYMPHOCYTE [3]: 85.33% | MEAN CORPUSCULAR HEMOGLOBIN [3]: 24.43 pg | MEAN CORPUSCULAR HEMOGLOBIN CONCENTRATION [3]: 39.53 G/DL | MEAN CORPUSCULAR VOLUME [3]: 61.9 fL | MONOCYTE [3]: 2.67% | NEUTROPHIL [3]: 12% | NUCLEATED RED BLOOD CELLS [3]: 0.33 /100WBC | PLATELET COUNT [3]: 1492.67 x10E3/uL | ALANINE AMINOTRANSFERASE [3]: 38 u/L | ALBUMIN [3]: 4.63 G/DL | ALKALINE PHOSPHATASE [3]: 309 u/L | ASPARTATE AMINOTRANSFERASE [3]: 72.33 u/L | BLOOD UREA NITROGEN [3]: 17 mg/dL | CARBON DIOXIDE [3]: 27.33 mmol/L | CHLORIDE [3]: 98.67 MEQ/L | CHOLESTEROL [3]: 79.33 mg/dL | CREATINE PHOSPHOKINASE [3]: 356.67 u/L | CREATININE [3]: 0.14 mg/dL | GLUCOSE [3]: 153.33 mg/dL | LACTATE DEHYDROGENASE [3]: 446.33 u/L | LIPASE [3]: 8.67 u/L | PHOSPHORUS [3]: 10.47 mg/dL | POTASSIUM [3]: 6.1 MEQ/L | SODIUM [3]: 143.9 MEQ/L | TOTAL BILIRUBIN [3]: 0.13 mg/dL | TOTAL PROTEIN [3]: 6.7 G/DL | URIC ACID [3]: 1.5 mg/dL
